Patent US20250034551A1, “METHODS AND SYSTEMS FOR HIGH-THROUGHPUT BIOCHEMICAL SCREENS” (THINK BIOSCIENCE, INC., priority 2021, published 2025)
“Also recorded” adds a separate entry of the source. Read-outs that look alike come from different tables or passages of the source.

Experiments:
[1] = biological target: kinase substrate domain (MidT) fused to the omega subunit of RNA polymerase (RpoZ), no protease recognition site in the linker (UniProt P0A800)
PTP1B [2] = biological target: T1, PTP1B (Homo sapiens, UniProt P18031); assay: PTP1B-catalyzed hydrolysis of p-nitrophenyl phosphate (pNPP), in vitro kinetic assay; assay type: biochemical; details: for Ki: PTP1B1-321; for inhibition of PTP1B activity on pNPP relative to himachalol: 50 nM PTP1B, 5 mM pNPP, 2% or 10% DMSO
T1 sequence (P18031 1-321): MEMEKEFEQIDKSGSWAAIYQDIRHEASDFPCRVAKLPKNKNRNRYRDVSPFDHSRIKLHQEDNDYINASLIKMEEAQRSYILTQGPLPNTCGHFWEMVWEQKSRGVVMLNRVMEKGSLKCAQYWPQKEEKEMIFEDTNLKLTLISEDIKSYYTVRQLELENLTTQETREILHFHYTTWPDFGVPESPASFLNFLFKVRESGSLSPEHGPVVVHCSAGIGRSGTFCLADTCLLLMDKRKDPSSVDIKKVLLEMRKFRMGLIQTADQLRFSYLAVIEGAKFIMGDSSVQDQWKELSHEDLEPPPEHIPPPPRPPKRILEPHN
Experimental: PTP1B was purified as described previously. Briefly, the E. coli BL21 (DE3) cells were transformed with a pET21b vector containing the catalytic domain of PTP1B (residues 1-321) modified with a 6× polyhistidine tag on its C-terminus. The cells were grown in 1-L cultures to an OD600 of 0.3-0.6 (37° C., 225 RPM), induced with 500 μM IPTG, and grown at 22° C. for 20 hours. The cells were lysed with B-PERII, and purified PTP1B by using desalting, nickel affinity, and anion exchange chromatography (HiPrep 26/10, HisTrap HP, and HiPrep Q HP, respectively; GE Healthcare). The final protein was stored (50 μM) in HEPES buffer (50 mM, pH 7.5, 0.5 mM TCEP) in 20% glycerol at −80° C.
(§1) Inhibition was examined by FPP by measuring its influence on PTP1B-catalyzed hydrolysis of p-nitrophenylphosphate (pNPP). Briefly, 100-μL reactions were prepared comprising 50 nM PTP1B, 0.167-20 mM pNPP, and 75-150 μM terpenoids in 50 mM HEPES (pH=7.3) with 50 mM TCEP, 50 μg/mL BSA, and 2-10% DMSO. The reactions were initiated by adding pNPP, and the production of p-nitrophenol (pNP) was monitored by measuring absorbance at 405 nm every 10 s for 5 min (SpectraMax iD3 plate reader). When necessary, the solubility of the terpenoids in individual wells were assessed by plotting the A405 values for each well—including a no-inhibitor well—in a single read.
Kinetic data was analyzed by using a custom Matlab script supplemented with a user-generated standard curve (e.g., a plot of absorbance at 405 nm vs. pNP concentration in μM, FIG. 15). This script removes datapoints outside of (i) the linear range of the standard curve and/or (ii) the initial rate regime, and it excludes datasets that contain fewer than 10 datapoints after these processing steps. The all datasets were fit using linear regression with Matlab's backslash operator. To determine the half maximal inhibitory concentration (IC50) of himachalol, kinetic models were evaluated by fitting them to standard models of inhibition (e.g., […], noncompetitive, […], and mixed inhibition). Briefly, the procedure included: (i) fitting an initial-rate measurements of pNPP hydrolysis with and without inhibitors, (ii) using the Akaike's Information Criterion (AIC) to compare the best-fit single parameter model to each alternative single-parameter model and accepting the “best-fit” model when the difference in AIC (Δi) exceeded 5 for all comparisons (when this criterion was not met, it was deemed that two or more single-parameter models may be indistinguishable), and (iii) using an F-test to compare a mixed inhibition model to the best-fit single-parameter model and accepting the mixed model if p<0.05. […] The MATLAB function “nlparci” was used to determine the confidence intervals of kinetic parameters, and those intervals were propagated to estimate confidence intervals for each IC50.
Inhibition by FPP, a costly reagent, was examined with three modifications of the above assay: (i) pNPP concentration was held constant (5 mM). (ii) The 10% DMSO was replaced with 10% of a mixture of methanol: 10 mM NH4OH (7:3). (FPP was purchased as a 1.1 mg/mL solution in methanol: 10 mM NH4OH (7:3)). (ii) IC50 was estimated by using a linear fit to the initial rate data; 95% confidence intervals were propagated on the regression parameters generated using Matlab's “coefCI function”. This approach, which reflects the limited number of measurements afforded by the FPP stock (measurements which include very high and very low initial rates), may result in a greater error than a more standard approach for estimating IC50 (e.g., 4-parameter logistic curves) but nonetheless provides an order of magnitude estimate of potency.

PTP1B [3] = biological target: T1, PTP1B; assay: melting temperatures determined with differential scanning fluorimetry; assay type: binding; details: n=3
Description: (§2) Error bars denote standard error for n=3 technical replicates. […] Error bars denote standard deviation for n=3 technical replicates.

PTP1B [4] = biological target: T1, PTP1B; assay: fluorescence-based binding isotherms for BBR; design: binding of BBR to PTP1B in the presence of amorphadiene: dose or concentration left out as unconfirmed; details: for ΔFmax of BBR binding isotherm: ±SE
Description: as §2

3CLpro = 3CLpro (Severe acute respiratory syndrome coronavirus 2, UniProt P0DTD1); assay: 3CLpro-mediated hydrolysis of FRET peptide Mca-[…](Dnp)K; assay type: biochemical, SARS-COV-2
Description: Förster resonance energy transfer (FRET) peptides provide a facile means of assaying protease inhibitors. These peptides contain a fluorophore and a quencher separated by a protease recognition domain; peptide cleavage separates the fluorophore and quencher and increases fluorescence.
For 3CLpro, a commercially available substrate was used: Mca-[…](Dnp)K (SEQ ID NO: 1), where Mca ((methoxycoumarin-4-yl) acetyl) was the fluorophore and 2,4-dinitrophenyl (Dnp) was the quencher. Using this assay, inhibition by eucalyptol and α-bisabolol (FIGS. 30B-30C, FIG. 56) was examined.

SARS-COV-2 3CLpro = SARS-COV-2 3CLpro (Severe acute respiratory syndrome coronavirus 2, UniProt P0DTD1); assay: 3CLpro-catalyzed proteolysis of fluorogenic peptide substrate TSAVLQ_AFC; assay type: biochemical; details: mean and standard error
[5] = solubility of terpenoids in kinetic assay wells (A405); assay type: physicochemical
Experimental: as §1

[6] = biological target: RpoZ-MidT fusion with the DENVpro/WNVpro recognition site in the linker (UniProt P0A800)
[7] = biological target: RpoZ-MidT fusion with the 3CLpro recognition sequence in the linker (number of flanking alanines not stated), P0A800
[8] = biological target: RpoZ-MidT fusion with the HIV-1 protease recognition sequence in the linker (number of flanking alanines not stated), P0A800
Chain of RpoZ-MidT fusion with the HIV-1 protease recognition sequence in the linker (number of flanking alanines not stated), P0A800 (P0A800 whole entry, looked up, the tested form may be a part): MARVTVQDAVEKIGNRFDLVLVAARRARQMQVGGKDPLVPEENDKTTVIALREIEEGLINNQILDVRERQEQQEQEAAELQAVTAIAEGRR

Chain of RpoZ-MidT fusion with the 3CLpro recognition sequence in the linker (number of flanking alanines not stated), P0A800 (P0A800 whole entry, looked up, the tested form may be a part): as above
Chain of RpoZ-MidT fusion with the DENVpro/WNVpro recognition site in the linker (P0A800 whole entry, looked up, the tested form may be a part): as above
Chain of kinase substrate domain (MidT) fused to the omega subunit of RNA polymerase (RpoZ), no protease recognition site in the linker (P0A800 whole entry, looked up, the tested form may be a part): as above

3-chymotrypsin-like protease (3CLpro) of SARS-CoV-2
dynamic range (DR, the change in luminescence caused by protease expression) [1]: 10.7±1.2 vs. 6.3±0.9

CC(C)=CCC/C(C)=C/CC/C(C)=C/CO[P@@](=O)(O)OP(=O)(O)O (stereo in doubt) [FPP, farnesyl pyrophosphate]
IC50 (PTP1B [2]; [PTP1B]=50 nM, [pNPP]=5 mM, linear fit, rough estimate, read-out: IC50 for PTP1B): ~200 µM

CC1=C[C@@H]2C(=C(C)CC[C@H]2C(C)C)CC1 [(+)-8-cadinene]
IC50 (PTP1B [2]; major product of terpene synthase A0A0C9VSL7, error 95 CI, read-out: IC50 (PTP1B), estimated): 165 µM

CCc1oc2cc(S(=O)(=O)Nc3ccc(S(=O)(=O)Nc4nccs4)cc3)ccc2c1C(=O)c1cc(Br)c(O)c(Br)c1 [BBR, 3-(3,5-dibromo-4-hydroxybenzoyl)-2-ethyl-N-[4-[(2-thiazolylamino)sulfonyl]phenyl]-6-benzofuransulfonamide]
effect on melting temperature (stability) of PTP1B (PTP1B [3]): destabilize PTP1B | ΔFmax of BBR binding isotherm (PTP1B [4]; BBR alone): 227000±13000 | ΔFmax of BBR binding isotherm (PTP1B [4]; BBR with AD): 195000±12000 | ΔFmax of BBR binding isotherm (PTP1B [4]; BBR with TCS401): 94000±2000 | binding of BBR to PTP1B in the presence of amorphadiene (PTP1B [4]; presence of amorphadiene): not significantly disrupted

Cc1cc(-c2c3ccccc3c(Br)c3sc(C)c(C)c23)cc(C)c1O[C@H](Cc1ccccc1)C(=O)O [Ertiprotafib]
effect on melting temperature (stability) of PTP1B (PTP1B [3]): destabilize PTP1B

O=C(O)C(=O)Nc1sc2c(c1C(=O)O)CCNC2 [TCS401]
effect on melting temperature (stability) of PTP1B (PTP1B [3]): do not

C=C(C)[C@@H]1CC[C@@H](C)[C@@H]2CCC(C)=C[C@@H]21 [amorphadiene]
effect on melting temperature (stability) of PTP1B (PTP1B [3]): do not | selectivity PTP1B versus TCPTP (PTP1B [2]): more potent inhibitor of PTP1B than TCPTP

CC12CCC(CC1)C(C)(C)O2 [eucalyptol]
inhibitory effect on 3CLpro (3CLpro; FRET peptide, FIG. 56): no inhibitory effect; also recorded: not an inhibitor

CC1=C[C@H]2[C@@H](CC1)[C@](C)(O)CCCC2(C)C [himachalol]
Ki (PTP1B [2]; fit of competitive model, read-out: Ki, competitive model): 24.4 µM | Ki (PTP1B [2]; fit of mixed model, read-out: Ki,c, mixed model): 161 µM | Ki (PTP1B [2]; fit of mixed model, read-out: Ki,u, mixed model): 305 µM | Ki (PTP1B [2]; fit of noncompetitive model, marked *, read-out: Ki, noncompetitive model (best fit)): 280 µM | Ki (PTP1B [2]; fit of uncompetitive model, read-out: Ki, uncompetitive model): 253 µM | IC50 (PTP1B [2]; PTP1B-catalyzed hydrolysis of pNPP, estimated from best-fit kinetic model at 20 mM pNPP, read-out: IC50 for PTP1B): 280 ± 59 µM

CC(C)=CCC=C(C)C1CC=C(C)CC1 (stereo not drawn) [α-bisabolene]
IC50 (SARS-COV-2 3CLpro): 186 ± 12 µM

CC1=C[C@H]2C(=C(C)CCCC2(C)C)CC1 [β-himachalene]
solubility in kinetic assay [5]: low solubilities | inhibition of PTP1B activity on pNPP relative to himachalol (PTP1B [2]): less inhibitory

C=C1C=CC(C)(C)CCCC(C)=CCC1 [γ-humulene]
solubility in kinetic assay ([5]; precluded IC50 estimates): low solubilities | inhibition of PTP1B activity on pNPP relative to himachalol (PTP1B [2]): less inhibitory

Non-structural protein 2B-3 protease complex from Dengue virus 2 (DENV2 NS2B-NS3)
LuxAB luminescence screen of proteases against recognition sites [6]: WNVpro and DNVpro showed no activity in initial screens

Non-structural protein 2B-3 protease complex from West Nile Virus (WNV NS2B-NS3)
LuxAB luminescence screen of proteases against recognition sites [6]: WNVpro and DNVpro showed no activity in initial screens

α-bisabolol
IC50 (SARS-COV-2 3CLpro): 30 to 80 µM | IC50 (3CLpro; FRET / fluorogenic peptide, mixture containing α-bisabolol, read-out: IC50 for 3CLpro): 3.33 µM | IC50 (3CLpro; fit to percent inhibition, FIG. 30C, read-out: half-maximal inhibitory concentration (IC50) for 3CLpro): ~3 µM

B1: protein tyrosine phosphatase 1B (PTP1B), catalytic domain 1-321 (protein)
chain: MEMEKEFEQIDKSGSWAAIYQDIRHEASDFPCRVAKLPKNKNRNRYRDVSPFDHSRIKLHQEDNDYINASLIKMEEAQRSYILTQGPLPNTCGHFWEMVWEQKSRGVVMLNRVMEKGSLKCAQYWPQKEEKEMIFEDTNLKLTLISEDIKSYYTVRQLELENLTTQETREILHFHYTTWPDFGVPESPASFLNFLFKVRESGSLSPEHGPVVVHCSAGIGRSGTFCLADTCLLLMDKRKDPSSVDIKKVLLEMRKFRMGLIQTADQLRFSYLAVIEGAKFIMGDSSVQDQWKELSHEDLEPPPEHIPPPPRPPKRILEPHN
dynamic range of LuxAB luminescence between active and inactive PTP1B [7]: retained the desired B2H activity (e.g., PTP1B inactivation increased luminescence) at a 4- to 5-fold dynamic range | dynamic range of LuxAB luminescence between active and inactive PTP1B [8]: retained the desired B2H activity (e.g., PTP1B inactivation increased luminescence) at a 4- to 5-fold dynamic range
